Laboratory results from patent publication US4518611A, “2-Furylbutyrolactone modulation of the immune system in mammals” (priority 1983, dated 1985).
Read-outs that look alike come from different tables or passages of the source.

How the values were obtained:
L5178Y target cells = experiment: MLTC assay of cytotoxic lymphocyte (CTL) activity, L5178Y target cells; type: cell-based, mouse, DBA/2
Text: A mixed lymphocyte tumor culture (MLTC) immunoassay, used to determine the cytotoxic lymphocyte (CTL) activity employs lymphocytes from either immunized (sensitized) mice or DBA/2 tumor dormant state animals in various stages of the tumor dormant state (TDS). The assay employs L5178Y target cells labeled with ^51 Chromium and effector cells (sensitized lymphocytes) from the above-mentioned sources. Effector-target cell ratios will vary with different experimental conditions and may or may not include irradiated stimulator L5178Y cells. Results are expressed as % lysis of target cells based on ratio of cpm of test group over cpm of total release (maximum) both of which are corrected for spontaneous release of ^51 Cr. The assay can be performed as an 8 or 18 hour release assay.
Ten days later the resultant tumor nodule, about 1 cm in size, is surgically excised. If the excision was successful, no subcutaneous tumors develop at the site of implantation. […] These mice are considered to be in the tumor dormant state. […]
DBA/2 mice in the early stage of TDS, prior to challenge with viable L5178Y tumor cells, were used to measure the effect of Cpd. 2 on CTL activity. Cpd. 2, 0.1, 1.0, 10 or 100 μg/ml, or just buffer was added in 100 ul volumes to MLTC microculture wells containing washed spleen lymphocytes from DBA/2 mice, effector, and L5178Y target cells at varying ^E /T ratios. The MLTC reaction was performed in the presence or absence of irradiated L5178Y stimulator cells. […]

KLH antibody response = conditions: for increase of antibody titer over control (fold): 200 and 400 mg/kg
Text: (§1) The effect of the compounds of this invention on the immune response to specific antigens involves immunization of mice with specific antigens such as bovine serum albumin (BSA) or keyhole limpet hemocyanin (KLH). Following immunization, it is possible to assess the cell-mediated or humoral (antibody) immune response to these antigens by various methods:
(2) Antibody response to soluble antigens such as BSA or KLH can be quantitated using a micro-ELISA solid phase heterogeneous immunoassay. The assay can be designed to quantitate class specific immunoglobulins (i.e., IgG or IgM).
(§2) Mice of the C57BL/6 strain are given i.p. injections of either 50, 100, 200 or 400 mg/kg of Cpd. 1 or buffer for ten days (days 1-10). An antigen, keyhole limpet hemocyanin (KLH), is administered intraperitoneally with Freund's Complete Adjuvant (FCA) on days 1, 7, and 13. Blood samples are taken for assay of the antibody response on days 0, 5, 12, and 17. Spleens are removed, lymphocytes isolated and a lymphocyte stimulation assay with PHA, Con-A or KLH antigen as the mitogens is performed on day 17 of the experiment.

spleen lymphocytes [1] = test system: spleen lymphocytes
Text: as §1
(§3) (1) Lymphocyte stimulation assays can be performed using varying concentrations of the specific antigens as mitogens in the lymphocyte stimulation microculture system described above. The only difference is that the incubation period is extended to five days instead of three as for the polyclonal mitogens.
as §2

CD rats = conditions: 14 days
Protocol: (§4) Single oral dose LD50 in CD-1 mice and CD rats, obtained from Charles River U.K. Ltd., for Cpd. 1 is determined. […] Cpd. 1, dissolved in buffer, or just buffer is administered orally and the mice and rats are observed for 14 days after dosing. After 14 days, the animals are sacrificed and necropsy is performed to check for gross evidence of toxicity.

CD-1 mice = conditions: 14 days
Protocol: as §4

spleen lymphocytes [2] = conditions: for stimulation of DNA synthesis (in words): BSA
Text: as §1, §3
Mice of the C57BL/6 strain are given i.p. injections of either 50, 100, 200 or 400 mg/kg of Cpd. 1 or buffer for twelve days (days 1-12). An antigen, bovine serum albumin (BSA), is administered intraperitoneally with Freund's Complete Adjuvant (FCA) on days 1, 7 and 14. Blood samples are taken for assay of the antibody response on days 0, 5, 13, and 19.

Cc1ccc(C2(O)C(=O)OC3C(O)COC32O)o1.Cc1ccc(C2(O)C(=O)OC3C(O)COC32O)o1.O=C1CCC(=O)O1 (centres unmarked) [Cpd. 1, 2-furylbutyrolactone:succinic anhydride]
% Lysis (L5178Y target cells; 0.001 μg/ml, E/T 10:1, TDS, without stimulator cells): 3.9%
% Lysis (L5178Y target cells; 0.01 μg/ml, E/T 10:1, TDS, without stimulator cells): 3.5%
% Lysis (L5178Y target cells; 0.01 μg/ml, E/T 100:1, TDS, without stimulator cells): 26.0%
% Lysis (L5178Y target cells; 0.1 μg/ml, E/T 10:1, TDS, without stimulator cells): 3.5%
% Lysis (L5178Y target cells; 0.1 μg/ml, E/T 30:1, TDS, with stimulator cells): 51.0%
% Lysis (L5178Y target cells; 0.1 μg/ml, E/T 100:1, TDS, with stimulator cells): 79.0%
% Lysis (L5178Y target cells; 1.0 μg/ml, E/T 10:1, TDS, without stimulator cells): 4.6%
% Lysis (L5178Y target cells; 1.0 μg/ml, E/T 30:1, TDS, with stimulator cells): 46.0%
% Lysis (L5178Y target cells; 1.0 μg/ml, E/T 30:1, TDS, without stimulator cells): 20.0%
% Lysis (L5178Y target cells; 10 μg/ml, E/T 6.25:1, TDS, without stimulator cells): .7%
% Lysis (L5178Y target cells; 10 μg/ml, E/T 10:1, TDS, without stimulator cells): 4.6%
% Lysis (L5178Y target cells; 10 μg/ml, E/T 12.5:1, TDS, without stimulator cells): 6.9%
% Lysis (L5178Y target cells; 10 μg/ml, E/T 25:1, TDS, with stimulator cells): 72.0%
% Lysis (L5178Y target cells; 10 μg/ml, E/T 25:1, TDS, without stimulator cells): 8.1%
% Lysis (L5178Y target cells; 10 μg/ml, E/T 30:1, TDS, with stimulator cells): 42.0%
% Lysis (L5178Y target cells; 100 μg/ml, E/T 6.25:1, TDS, without stimulator cells): 6.1%
% Lysis (L5178Y target cells; 100 μg/ml, E/T 10:1, TDS, without stimulator cells): 8.6%
% Lysis (L5178Y target cells; 100 μg/ml, E/T 100:1, TDS, without stimulator cells): 42.0%
% Lysis (L5178Y target cells; E + D, E/T 10:1, TDS effectors, no stimulators): 9.0%
enhancement of CTL activity (in words) (L5178Y target cells; L5178Y target, TDS effectors with stimulator cells): significant specific enhancement of CTL activity of effector cells in the presence of stimulator cells
% Lysis (L5178Y target cells; N + S + D, E/T 30:1, normal spleen cells + stimulators): -9.7%
% Lysis (L5178Y target cells; N + S + D, E/T 100:1, normal spleen cells + stimulators): -9.5%
CTL activity (in words) (L5178Y target cells; TDS 10 days after challenge, with or without stimulator cells, any E/T ratio): significant increase in CTL activity
Micro-ELISA Titer (KLH antibody response; 50 mg/kg i.p., Day 5): N/R
Micro-ELISA Titer (KLH antibody response; 50 mg/kg i.p., Prebleed): N/R
Micro-ELISA Titer (KLH antibody response; 100 mg/kg i.p., Day 5): N/R
Micro-ELISA Titer (KLH antibody response; 100 mg/kg i.p., Prebleed): N/R
Micro-ELISA Titer (KLH antibody response; 200 mg/kg i.p., Day 5): N/R
Micro-ELISA Titer (KLH antibody response; 200 mg/kg i.p., Prebleed): N/R
Micro-ELISA Titer (KLH antibody response; 400 mg/kg i.p., Day 5): N/R
Micro-ELISA Titer (KLH antibody response; 400 mg/kg i.p., Prebleed): N/R
increase of antibody titer over control (fold) (KLH antibody response; day 12): four-fold
increase of antibody titer over control (fold) (KLH antibody response; day 17): eight-fold
Lymphocyte Stimulation Index, Con-A (spleen lymphocytes [1]; 50 mg/kg, Day 17): 19.0
Lymphocyte Stimulation Index (spleen lymphocytes [1]; 50 mg/kg, KLH 0.025 μg/well, Day 17): 0.0386
Lymphocyte Stimulation Index (spleen lymphocytes [1]; 50 mg/kg, KLH 0.05 μg/well, Day 17): 0.357
Lymphocyte Stimulation Index (spleen lymphocytes [1]; 50 mg/kg, KLH 0.5 μg/well, Day 17): 0.415
Lymphocyte Stimulation Index (spleen lymphocytes [1]; 50 mg/kg, KLH 1.0 μg/well, Day 17): 0.536
Lymphocyte Stimulation Index (spleen lymphocytes [1]; 100 mg/kg, KLH 0.025 μg/well, Day 17): 0.401
Lymphocyte Stimulation Index (spleen lymphocytes [1]; 100 mg/kg, KLH 0.05 μg/well, Day 17): 0.526
Lymphocyte Stimulation Index (spleen lymphocytes [1]; 100 mg/kg, KLH 0.5 μg/well, Day 17): 0.734
Lymphocyte Stimulation Index (spleen lymphocytes [1]; 100 mg/kg, KLH 1.0 μg/well, Day 17): 0.898
lymphocyte DNA synthesis (in words) (spleen lymphocytes [1]; 200 mg/kg, Con-A or KLH, day 17): statistically significant increase in lymphocyte DNA synthesis
Lymphocyte Stimulation Index (spleen lymphocytes [1]; 200 mg/kg, KLH 0.025 μg/well, Day 17): 3.91
Lymphocyte Stimulation Index (spleen lymphocytes [1]; 200 mg/kg, KLH 0.05 μg/well, Day 17): 1.02
Lymphocyte Stimulation Index (spleen lymphocytes [1]; 200 mg/kg, KLH 0.5 μg/well, Day 17): 4.26
Lymphocyte Stimulation Index (spleen lymphocytes [1]; 200 mg/kg, KLH 1.0 μg/well, Day 17): 7.45
Lymphocyte Stimulation Index, Control (no mitogen) (spleen lymphocytes [1]; 400 mg/kg, Day 17): 0.840
Lymphocyte Stimulation Index (spleen lymphocytes [1]; 400 mg/kg, KLH 0.025 μg/well, Day 17): 1.03
Lymphocyte Stimulation Index (spleen lymphocytes [1]; 400 mg/kg, KLH 0.05 μg/well, Day 17): 0.667
Lymphocyte Stimulation Index (spleen lymphocytes [1]; 400 mg/kg, KLH 0.5 μg/well, Day 17): 0.232
Lymphocyte Stimulation Index (spleen lymphocytes [1]; 400 mg/kg, KLH 1.0 μg/well, Day 17): 0.589
deaths or signs of toxicity (CD rats; 5 g/kg oral): No deaths or signs of toxicity
LD50 (CD rats; single oral dose): > 5 g/kg
deaths or signs of toxicity (CD-1 mice; 5 g/kg oral): No deaths or signs of toxicity
LD50 (CD-1 mice; single oral dose): > 5 g/kg
Lymphocyte Stimulation Index (spleen lymphocytes [2]; 50 mg/kg, BSA 0 μg/well, Day 19): .26
stimulation of DNA synthesis (in words) (spleen lymphocytes [2]; 50 mg/kg, day 19): This effect has waned by day 19
Lymphocyte Stimulation Index (spleen lymphocytes [2]; 100 mg/kg, BSA 0 μg/well, Day 19): 4.1
Lymphocyte Stimulation Index (spleen lymphocytes [2]; 100 mg/kg, BSA 0.01 μg/well, Day 13): 9.8
Lymphocyte Stimulation Index (spleen lymphocytes [2]; 100 mg/kg, BSA 1.0 μg/well, Day 19): .26
Lymphocyte Stimulation Index (spleen lymphocytes [2]; 200 mg/kg, BSA 0 μg/well, Day 19): 0.42
Lymphocyte Stimulation Index (spleen lymphocytes [2]; 200 mg/kg, BSA 1 μg/well, Day 13): 14.0
Lymphocyte Stimulation Index (spleen lymphocytes [2]; 400 mg/kg, BSA 0 μg/well, Day 19): 5.0
stimulation of DNA synthesis (in words) (spleen lymphocytes [2]; day 13): Only the 50 mg/kg dose shows significant stimulation of DNA synthesis on day 13 compared to controls
